Test results as given in patent publication US10770169B2, “Method of providing a treatment to a subject based on a dynamic pathway map” (THE REGENTS OF THE UNIVERSITY OF CALIFORNIA, priority 2010, dated 2020).

Key:
[1] = test system: panel of 55 breast cancer cell lines; test: Cell growth inhibition assay (Cell Titer Glo, 72 h, 9 doses; GI50, TGI, LC50); type: cell-based, human; settings: value is the negative log10 of mol/L
[2] = test system: luminal, basal, claudin-low and ERBB2AMP breast cancer cell lines; test: Associations of clinically relevant subtypes and response (non-parametric ANOVA or t-test on GI50 ranks); type: cell-based, human
Outline: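 Significance was set at FDR p<0.20 after combining p-values across three test sets. Subtype–response associations came from rank-based non-parametric ANOVA or t-tests on GI50. For three-class comparisons, post-hoc tests of each group against the rest identified the most sensitive group, with FDR correction.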

In the case of CCNCCCCNCCCCNCCCCNCCCCNCC=CCNCCCCNCCCCNCCCCNCCCCNCC.Cl.Cl.Cl.Cl.Cl.Cl.Cl.Cl.Cl.Cl (stereo in doubt) [CGC-11144], the GI50 ([1]; 600MPE cell line, censored GI50 values) is reported as 6.49, the GI50 ([1]; AU565 cell line, censored GI50 values) is reported as 6.31 and the GI50 ([1]; BT20 cell line, censored GI50 values) is reported as 6.52. For the same compound, the GI50 ([1]; BT474 cell line, censored GI50 values) was 6.02, the GI50 ([1]; BT483 cell line, censored GI50 values) was 6.25 and the GI50 ([1]; BT549 cell line, censored GI50 values) was 6.65. It also gave a GI50 ([1]; CAMA1 cell line, censored GI50 values) of 6.40, a GI50 ([1]; HCC38 cell line, censored GI50 values) of 6.81 and a GI50 ([1]; HCC70 cell line, censored GI50 values) of 6.55. For the same compound, the GI50 ([1]; HCC202 cell line, censored GI50 values) was 6.26, the GI50 ([1]; HCC1143 cell line, censored GI50 values) was 6.88 and the GI50 ([1]; HCC1187 cell line, censored GI50 values) was 6.02. For the same compound, the GI50 ([1]; HCC1395 cell line, censored GI50 values) was 6.20, the GI50 ([1]; HCC1419 cell line, censored GI50 values) was 6.30 and the GI50 ([1]; HCC1428 cell line, censored GI50 values) was 6.33. It also gave a GI50 ([1]; HCC1500 cell line, censored GI50 values) of 6.65, a GI50 ([1]; HCC1806 cell line, censored GI50 values) of 6.71 and a GI50 ([1]; HCC1937 cell line, censored GI50 values) of 6.76. It also gave a GI50 ([1]; HCC1954 cell line, censored GI50 values) of 6.56, a GI50 ([1]; HCC2185 cell line, censored GI50 values) of 6.60 and a GI50 ([1]; HCC3153 cell line, censored GI50 values) of 6.72. It also gave a GI50 ([1]; LY2 cell line, censored GI50 values) of 5.18, a GI50 ([1]; MCF7 cell line, censored GI50 values) of 6.33 and a GI50 ([1]; MDAMB134VI cell line, censored GI50 values) of 6.38. For the same compound, the GI50 ([1]; MDAMB157 cell line, censored GI50 values) was 6.96, the GI50 ([1]; MDAMB175VII cell line, censored GI50 values) was 6.75 and the GI50 ([1]; MDAMB231 cell line, censored GI50 values) was 4.66. It also gave a GI50 ([1]; MDAMB361 cell line, censored GI50 values) of 5.78, a GI50 ([1]; MDAMB415 cell line, censored GI50 values) of 6.78 and a GI50 ([1]; MDAMB436 cell line, censored GI50 values) of 6.06. The GI50 ([1]; MDAMB453 cell line, censored GI50 values) was 6.28, the GI50 ([1]; MDAMB468 cell line, censored GI50 values) was 6.17 and the GI50 ([1]; SKBR3 cell line, censored GI50 values) was 5.30. It also gave a GI50 ([1]; SUM149PT cell line, censored GI50 values) of 6.53, a GI50 ([1]; SUM159PT cell line, censored GI50 values) of 6.60 and a GI50 ([1]; SUM185PE cell line, censored GI50 values) of 6.68. For the same compound, the GI50 ([1]; SUM225CWN cell line, censored GI50 values) was 5.45, the GI50 ([1]; SUM1315MO2 cell line, censored GI50 values) was 5.69 and the GI50 ([1]; cell line 600MPE) was 6.49. For the same compound, the GI50 ([1]; cell line AU565) was 6.31, the GI50 ([1]; cell line BT20) was 6.52 and the GI50 ([1]; cell line BT474) was 6.02. The GI50 ([1]; cell line BT483) was 6.25, the GI50 ([1]; cell line BT549) was 6.65 and the GI50 ([1]; cell line CAMA1) was 6.40. It also gave a GI50 ([1]; cell line HCC38) of 6.81, a GI50 ([1]; cell line HCC70) of 6.55 and a GI50 ([1]; cell line HCC202) of 6.26. The GI50 ([1]; cell line HCC1143) was 6.88, the GI50 ([1]; cell line HCC1187) was 6.02 and the GI50 ([1]; cell line HCC1395) was 6.20. It also gave a GI50 ([1]; cell line HCC1419) of 6.30, a GI50 ([1]; cell line HCC1428) of 6.33 and a GI50 ([1]; cell line HCC1500) of 6.65. The GI50 ([1]; cell line HCC1806) was 6.71, the GI50 ([1]; cell line HCC1937) was 6.76 and the GI50 ([1]; cell line HCC1954) was 6.56. For the same compound, the GI50 ([1]; cell line HCC2185) was 6.60, the GI50 ([1]; cell line HCC3153) was 6.72 and the GI50 ([1]; cell line LY2) was 5.18. For the same compound, the GI50 ([1]; cell line MCF7) was 6.33, the GI50 ([1]; cell line MDAMB134V) was 6.38 and the GI50 ([1]; cell line MDAMB157) was 6.96. It also gave a GI50 ([1]; cell line MDAMB175V) of 6.75, a GI50 ([1]; cell line MDAMB231) of 4.66 and a GI50 ([1]; cell line MDAMB361) of 5.78. For the same compound, the GI50 ([1]; cell line MDAMB415) was 6.78, the GI50 ([1]; cell line MDAMB436) was 6.06 and the GI50 ([1]; cell line MDAMB453) was 6.28. The GI50 ([1]; cell line MDAMB468) was 6.17, the GI50 ([1]; cell line SKBR3) was 5.30 and the GI50 ([1]; cell line SUM52PE) was 6.79. It also gave a GI50 ([1]; cell line SUM149PT) of 6.53, a GI50 ([1]; cell line SUM159PT) of 6.60 and a GI50 ([1]; cell line SUM185PE) of 6.68. For the same compound, the GI50 ([1]; cell line SUM225CWN) was 5.45, the GI50 ([1]; cell line SUM1315MO) was 5.69 and the GI50 ([1]; cell line T47D) was 6.96. It also gave a GI50 ([1]; cell line UACC812) of 6.78, a GI50 ([1]; cell line UACC893) of 6.60 and a GI50 ([1]; cell line ZR751) of 6.48. The “association of response with ERBB2 amplification” value [2] was “negatively associated with ERBB2 amplification” and the Subtype specificity ([2]; Table 6, most sensitive subtype, FDR p<0.20) was “not ERBB2AMP”.
